Results on 36 compounds are retold here after patent US20240148744A1 (Celgene Corporation, priority 2021, published 2024).

A value given as a limit tells only on which side of the number the result lay.

For this assay, the system named is Onchocerca gutturosa adult male worms. Briefly: Onchocerca gutturosa in vitro screening model: adult worm motility score and MTT/formazan viability. The format is cell-based. The note with it: read-out: O. gutt Activity class.
As to `Cc1cccnc1S(=O)(=O)Nc1cccc2ncc(N3CCOCC3)cc12` [Compound 24, 3-methyl-N-(3-morpho-linoquinolin-5-yl)pyridine-2-sulfonamide], the IC50 was in the range of 500 to 5000 nM. For `CCn1cccc1S(=O)(=O)Nc1cccc2cccnc12` [Compound 227, 1-ethyl-N-(quinolin-8-yl)-1H-pyrrole-2-sulfonamide], the IC50 is under 200 nM.

Turning to `O=S(=O)(Nc1ccc(N2CCOCC2)c2cccnc12)c1ccco1` [Compound 61, N-(5-morph-olinoquin-olin-8-yl)-furan-2-sulfonamide], the IC50 was in the range of 500 to 5000 nM. As for `N#Cc1cccc(S(=O)(=O)Nc2cccc3cccnc23)c1` [Compound 250, 3-cyano-N-(quinolin-8-yl)benzene-sulfonamide], the IC50 lay in the range of 500 to 5000 nM. Regarding `O=S(=O)(Nc1cc(-c2ccccc2)cc2cccnc12)c1ccccn1` [Compound 97, N-(6-phenyl-quinolin-8-yl)pyridine-2-sulfonamide], the IC50 was 500 to 5000 nM. The same measure for `O=S(=O)(Nc1c(Cl)ccc2cccnc12)c1cncc(N2CCCC2)n1` [Compound 74, N-(7-chloro-quinolin-8-yl)-6-(pyrrol-idin-1-yl)pyr-azine-2-sulfonamide]: 200 to 500 nM; for `COc1cccnc1S(=O)(=O)Nc1cccc2cccnc12` [Compound 223, 3-methoxy-N-(quinolin-8-yl)pyridine-2-sulfonamide]: under 200 nM; for `Cc1cccnc1S(=O)(=O)Nc1cccc2c1CN(C1CC1)C2` [Compound 41, N-(2-cyclo-propyliso-indolin-4-yl)-3-methylpyr-idine-2-sulfonamide]: 500 to 5000 nM. With `CC(C)n1ccnc1S(=O)(=O)Nc1cccc2c1CN(C1CC1)C2` [Compound 33, N-(2-cyclo-propyliso-indolin-4-yl)-1-isopropyl-1H-imidazole-2-sulfonamide], the IC50 lay within 200 to 500 nM. The same measure for `CC(C)n1nccc1S(=O)(=O)Nc1cccc2c(Cl)ccnc12` [Compound 79, N-(4-chloro-quinolin-8-yl)-1-iso-propyl-1H-pyrazole-5-sulfonamide]: under 200 nM; for `Cc1cccnc1S(=O)(=O)Nc1cccc2c(OC(C)C)ccnc12` [Compound 19, N-(4-iso-propoxyquin-olin-8-yl)-3-methylpyr-idine-2-sulfonamide]: 500 to 5000 nM; for `O=S(=O)(Nc1ccnc2cccnc12)c1cc(C2CC2)ccn1` [Compound 195]: under 200 nM.

Consider `Cc1ccc(S(=O)(=O)Nc2cccc3cccnc23)cc1` [Compound 284, 4-methyl-N-(quinolin-8-yl)benzene-sulfonamide], for which the IC50 is under 200 nM. As to `O=S(=O)(Nc1c(Cl)ccc2cccnc12)c1ncccc1C1CC1` [Compound 69, N-(7-chloro-quinolin-8-yl)-3-cyclo-propylpyr-idine-2-sulfonamide], the IC50 was under 200 nM.

As for `O=S(=O)(Nc1cc(O)cc2cccnc12)c1ccccn1` [Compound 94, N-(6-hydroxy-quinolin-8-yl)pyridine-2-sulfonamide], the IC50 was in the range of 500 to 5000 nM. The same measure for `Cc1ccc(S(=O)(=O)Nc2ccc(N3CCC(O)(c4ccccc4)CC3)c3cccnc23)cc1` [Compound 95, N-(5-(4-hydroxy-4-phenylpiper-idin-1-yl)-quinolin-8-yl)-4-methyl-benzene-sulfonamide]: 500 to 5000 nM; for `CN(c1cccc2cccnc12)S(=O)(=O)c1ccccn1` [Compound 256, N-methyl-N-(quinolin-8-yl)pyridine-2-sulfonamide]: 500 to 5000 nM; for `O=S(=O)(Nc1cccc2cccnc12)c1ncccn1` [Compound 200, N-(quinolin-8-yl)pyrimidine-2-sulfonamide]: under 200 nM. Consider `Cn1nccc1S(=O)(=O)Nc1cccc2cccnc12` [Compound 252, 1-methyl-N-(quinolin-8-yl)-1H-pyrazole-5-sulfonamide], for which the IC50 is 500 to 5000 nM. With `Cc1cc(NS(=O)(=O)c2nccn2C)c2ncccc2c1` [Compound 129, 1-methyl-N-(6-methyl-quinolin-8-yl)-1H-imidazole-2-sulfonamide], the IC50 was under 200 nM. For the compound `O=S(=O)(Nc1cccc2cccnc12)c1ccc2ccccc2n1` [Compound 239, N-(quinolin-8-yl)quinoline-2-sulfonamide], the IC50 is under 200 nM.

`O=S(=O)(Nc1c(Cl)cc(N2CCOCC2)c2cccnc12)c1ncccc1C1CC1` [Compound 139, N-(7-chloro-5-morpholino-quinolin-8-yl)-3-cyclopropyl-pyridine-2-sulfonamide]: the IC50 is under 200 nM. In the case of `COc1nccnc1S(=O)(=O)Nc1c(Cl)ccc2cccnc12` [Compound 101, N-(7-chloro-quinolin-8-yl)-3-methoxypyr-azine-2-sulfon-amide], the IC50 was in the range of 500 to 5000 nM.

Turning to `COc1ccc2cccnc2c1NS(=O)(=O)c1ncccc1C1CC1` [Compound 141, 3-cyclopropyl-N-(7-methoxy-quinolin-8-yl)-pyridine-2-sulfonamide], the IC50 is under 200 nM. As to `O=S(=O)(Nc1ccc(N2CCOCC2)c2cccnc12)c1cn[nH]c1` [Compound 62, N-(5-morph-olinoquin-olin-8-yl)-1H-pyrazole-4-sulfonamide], the IC50 is 500 to 5000 nM. For `N#Cc1ccccc1S(=O)(=O)Nc1cccc2cccnc12` [Compound 249, 2-cyano-N-(quinolin-8-yl)benzene-sulfonamide], the IC50 is 200 to 500 nM. Regarding `Cc1ccc(NS(=O)(=O)c2ccccn2)c2ncccc12` [Compound 137, N-(5-methyl-quinolin-8-yl)pyridine-2-sulfonamide], the IC50 is under 200 nM.

For the compound `Cn1ccnc1S(=O)(=O)Nc1ccc(F)c2cccnc12` [Compound 133, N-(5-fluoro-quinolin-8-yl)-1-methyl-1H-imidazole-2-sulfonamide], the IC50 was under 200 nM. Take `CN(C)c1cncc(S(=O)(=O)Nc2c(Cl)ccc3cccnc23)n1` [Compound 50, N-(7-chloro-quinolin-8-yl)-6-(dimeth-ylamino)pyr-azine-2-sulfonamide]: the IC50 fell in the range of 500 to 5000 nM. For `O=S(=O)(Nc1cccc2cccnc12)c1cnc(-c2ccccn2)s1` [Compound 170, 2-(pyridin-2-yl)-N-(quinolin-8-yl)thiazole-5-sulfonamide], the IC50 is under 200 nM. As to `COc1cccc(S(=O)(=O)Nc2cccc3cccnc23)n1` [Compound 224, 6-methoxy-N-(quinolin-8-yl)pyridine-2-sulfonamide], the IC50 lay within 200 to 500 nM. On to `Cc1cc(C)cc(S(=O)(=O)Nc2cccc3cccnc23)c1` [Compound 254, 3,5-dimethyl-N-(quinolin-8-yl)benzene-sulfonamide], for which the IC50 is under 200 nM. With `Cc1cccnc1S(=O)(=O)Nc1cccc2c(F)ccnc12` [Compound 12, N-(4-fluoro-quinolin-8-yl)-3-methylpyr-idine-2-sulfonamide], the IC50 was 200 to 500 nM. Regarding `Cc1ccc(S(=O)(=O)Nc2cc(C(F)(F)F)cc3cccnc23)cc1` [Compound 138, 4-methyl-N-(6-(trifluoro-methyl)quin-olin-8-yl)-benzene-sulfonamide], the IC50 is 200 to 500 nM. Regarding `Cc1cccnc1S(=O)(=O)Nc1cccc2c1CN(C)C2` [Compound 51, 3-methyl-N-(2-methyl-isoindolin-4-yl)pyridine-2-sulfonamide], the IC50 is under 200 nM.

With `Cc1nccnc1S(=O)(=O)Nc1cccc2cccnc12` [Compound 210, 3-methyl-N-(quinolin-8-yl)pyrazine-2-sulfonamide], the IC50 is under 200 nM.
